Our source for the GI50 and TGI values is PubChem BioAssay (NCI).

Each structure is given as a SMILES string. Several values for one entry are separate records, joined by “and”; a condition that tells them apart may be missing. Identical values can stand only once.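 All cell lines were grown in 96-well plates and treated with compound for 48 hours. GI50 is the concentration that inhibits growth by half. TGI: concentration producing complete growth inhibition.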

Test systems include SF-268 CNS; M14 melanoma; CAKI-1 renal; OVCAR-8 ovarian; SN12C renal; EKVX NSCLC; NCI-H460 lung; CCRF-CEM leukemia; A549 NSCLC; SK-OV-3 ovarian.
What all share (assay): inhibition of tumour cell growth, NCI panel, 48 h

Turning to `O=C(c1ccco1)c1c(C(F)(F)F)nc2cc(C(F)(F)F)ccc2[n+]1[O-]`, the GI50 was 24.6 µM with SF-268 CNS; over 100 µM in the experiment on M14 melanoma; 19.7 µM in the experiment on CAKI-1 renal; 31.8 µM with OVCAR-8 ovarian; 43.7 µM with SN12C renal; 50.6 µM in the experiment with EKVX NSCLC. In addition, the GI50 in the experiment with NCI-H460 lung is 56 µM; in the experiment on CCRF-CEM leukemia, 15.6 µM; in the experiment with A549 NSCLC, 48.4 µM; in the experiment with SK-OV-3 ovarian, 20.3 µM. Also, the TGI is 81.3 µM with SF-268 CNS; over 100 µM in the experiment with M14 melanoma; 58.8 µM with CAKI-1 renal; over 100 µM with OVCAR-8 ovarian; over 100 µM with SN12C renal; over 100 µM with EKVX NSCLC. The TGI with NCI-H460 lung was over 100 µM; in the experiment on CCRF-CEM leukemia, 44.3 µM; in the experiment on A549 NSCLC it was over 100 µM; in the experiment with SK-OV-3 ovarian it was 64.6 µM.

For `CC1=Nc2c([nH]c(=S)[nH]c2=O)NC(c2ccc(Cl)c(Cl)c2)C1` (configuration not stated), the TGI in the experiment with SF-268 CNS is over 93.1 µM; in the experiment with M14 melanoma it was 31.3 µM; in the experiment on CAKI-1 renal, over 100 µM; with OVCAR-8 ovarian, 38.2 µM; in the experiment with SN12C renal, 43.9 µM; with EKVX NSCLC, over 68.3 µM. Also, the TGI was over 100 µM in the experiment on NCI-H460 lung, over 100 µM in the experiment on CCRF-CEM leukemia, 47.5 µM in the experiment with A549 NSCLC and 95.6 µM in the experiment on SK-OV-3 ovarian.

As to `O=C(N/C(=C\c1ccc(Br)cc1)c1nc2ccccc2s1)c1ccccc1`, the TGI with SF-268 CNS, in the experiment with M14 melanoma, in the experiment on CAKI-1 renal, in the experiment on OVCAR-8 ovarian, in the experiment on SN12C renal and in the experiment on EKVX NSCLC was over 100 µM throughout. Moreover, the TGI in the experiment on NCI-H460 lung, in the experiment on CCRF-CEM leukemia, with A549 NSCLC and in the experiment on SK-OV-3 ovarian was over 100 µM each time.

Consider `Cc1[nH]c(=O)nc(CC(O)(c2ccccc2)c2ccccc2)c1-c1ccccc1`, for which the TGI in the experiment with SF-268 CNS, with M14 melanoma, in the experiment on CAKI-1 renal, with OVCAR-8 ovarian, with SN12C renal and in the experiment on EKVX NSCLC was over 100 µM in each case. In addition, the TGI with NCI-H460 lung, in the experiment with CCRF-CEM leukemia, in the experiment with A549 NSCLC and with SK-OV-3 ovarian was over 100 µM in each case.

With `O=C1C=CN(C2OC(CO)C(O)C2O)C(=O)C1` (configuration not stated), the GI50 with SF-268 CNS is 172 µM and 231 µM; in the experiment on CAKI-1 renal, 17.3 µM; in the experiment with OVCAR-8 ovarian, 72.6 µM and 42.7 µM; in the experiment on SN12C renal it was 1.34 µM; in the experiment with NCI-H460 lung, 0.728 µM; in the experiment on CCRF-CEM leukemia, over 625 µM. Further, the GI50 in the experiment with A549 NSCLC was 28.9 µM; in the experiment on SK-OV-3 ovarian it was 580 µM. Moreover, the TGI is 625 µM and > 2500 µM in the experiment with SF-268 CNS; over 2500 µM with M14 melanoma; 296 µM and 1010 µM in the experiment on CAKI-1 renal; 625 µM and > 2500 µM in the experiment on OVCAR-8 ovarian; over 2500 µM in the experiment on EKVX NSCLC; 625 µM and 569 µM in the experiment on NCI-H460 lung. Besides, the TGI with CCRF-CEM leukemia was over 1710 µM; in the experiment on A549 NSCLC, 625 µM and > 2500 µM; with SK-OV-3 ovarian, 625 µM and > 2320 µM.

Take `O=C(Nc1cccc2cccnc12)c1ccc(N2C(=O)[C@@H]3[C@H](C2=O)[C@@H]2C=C[C@H]3C2)cc1`: the GI50 in the experiment on SF-268 CNS is 35.7 µM; with M14 melanoma, 34.9 µM; in the experiment on CAKI-1 renal it was 21 µM; in the experiment with OVCAR-8 ovarian, 26 µM; in the experiment on SN12C renal, 28.7 µM; in the experiment on EKVX NSCLC, 32.2 µM. Besides, the GI50 in the experiment on NCI-H460 lung was 34.6 µM; with CCRF-CEM leukemia it was 30.1 µM; with A549 NSCLC it was 26.2 µM; in the experiment on SK-OV-3 ovarian, over 62.4 µM. Moreover, the TGI with SF-268 CNS, in the experiment on M14 melanoma, in the experiment with CAKI-1 renal, in the experiment on OVCAR-8 ovarian, with SN12C renal and in the experiment on EKVX NSCLC was over 100 µM each time. Besides, the TGI in the experiment with NCI-H460 lung, with CCRF-CEM leukemia, in the experiment with A549 NSCLC and in the experiment with SK-OV-3 ovarian was over 100 µM throughout.

Turning to `c1ccc2cc(OCC3CO3)c(OCC3CO3)cc2c1` (configuration not stated), the TGI worked out at 13.3 µM with SF-268 CNS; 13.3 µM with M14 melanoma; 37.6 µM with CAKI-1 renal; 12.2 µM in the experiment on OVCAR-8 ovarian; 15 µM with SN12C renal; 24.1 µM with EKVX NSCLC. In addition, the TGI was determined as 15.8 µM with NCI-H460 lung, 1.48 µM in the experiment with CCRF-CEM leukemia, 30 µM in the experiment with A549 NSCLC and 22.3 µM with SK-OV-3 ovarian.

Turning to `COc1cc(C2CC(c3ccc4c(c3)OCO4)=NN2C(C)=O)cc(OC)c1OC` (configuration not stated), the GI50 with SF-268 CNS was 6.42 µM; with M14 melanoma, 0.536 µM; in the experiment on CAKI-1 renal it was 0.715 µM; in the experiment with OVCAR-8 ovarian, 5.51 µM; in the experiment with SN12C renal it was 7.48 µM; with EKVX NSCLC, 3.13 µM. The GI50 is 0.398 µM in the experiment on NCI-H460 lung, 0.79 µM in the experiment on CCRF-CEM leukemia, 2.42 µM in the experiment on A549 NSCLC and 0.972 µM with SK-OV-3 ovarian. Further, the TGI is over 100 µM with SF-268 CNS; over 39.7 µM with M14 melanoma; over 100 µM in the experiment with CAKI-1 renal; over 100 µM in the experiment on OVCAR-8 ovarian; over 100 µM in the experiment on SN12C renal; over 100 µM in the experiment on EKVX NSCLC. In addition, the TGI with NCI-H460 lung is over 59.8 µM; in the experiment on CCRF-CEM leukemia it was over 27 µM; in the experiment with A549 NSCLC, over 100 µM; in the experiment on SK-OV-3 ovarian, over 65.8 µM.

For `CC(C)=CCC/C(C)=C/CC/C(=C/COP(=O)(OCc1ccc([N+](=O)[O-])o1)N(C)CCCCCl)CC=C(C)C` (configuration not stated), the GI50 is 15.1 µM with SF-268 CNS; 2.62 µM with M14 melanoma; 4.06 µM in the experiment with CAKI-1 renal; 3.04 µM in the experiment on OVCAR-8 ovarian; 2.98 µM with SN12C renal; 3.73 µM in the experiment with EKVX NSCLC. Also, the GI50 was 3.75 µM with NCI-H460 lung, 6.16 µM in the experiment on CCRF-CEM leukemia, 8.66 µM with A549 NSCLC and 18.2 µM in the experiment with SK-OV-3 ovarian. The TGI with SF-268 CNS was found to be 29.9 µM; with M14 melanoma, 10.2 µM; in the experiment with CAKI-1 renal, 19.7 µM; in the experiment with OVCAR-8 ovarian, 13.5 µM; in the experiment with SN12C renal, 12.3 µM; in the experiment with EKVX NSCLC, 19.8 µM. The TGI was 11.8 µM with NCI-H460 lung, over 100 µM in the experiment with CCRF-CEM leukemia, 24.2 µM with A549 NSCLC and 55.8 µM with SK-OV-3 ovarian.
